ChEMBL document CHEMBL1201862, “PubChem BioAssay data set” (2004)
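Test compounds were applied to cells in 96-well plates for 48 hours at 5 doses. GI50 is the concentration that inhibits growth by half.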 Activity calls are given as the source filed them. Cut-off read from the data, not from the text of the source: active = GI50 up to about 1.1 µM and inactive = higher.

Legend:
Assay in all cases: inhibition of tumour cell growth, NCI panel, 48 h
COLO 205 = tested on: COLO 205
EKVX = tested on: EKVX
HOP-92 = tested on: HOP-92
HT-29 = tested on: HT-29
K562 = tested on: K562
MDA-MB-435 = tested on: MDA-MB-435
MDA-N = tested on: MDA-N
Malme-3M = tested on: Malme-3M
NCI-H23 = tested on: NCI-H23
NCI-H460 = tested on: NCI-H460
OVCAR-5 = tested on: OVCAR-5
OVCAR-8 = tested on: OVCAR-8
RPMI-8226 = tested on: RPMI-8226
SK-MEL-2 = tested on: SK-MEL-2
SNB-19 = tested on: SNB-19
TK-10 = tested on: TK-10
U-251 = tested on: U-251
SK-MEL-28 = tested on: SK-MEL-28
SW-620 = tested on: SW-620
HCC 2998 = tested on: HCC 2998

Measured: GI50

O=C(O)CCC(=O)c1ccc[nH]1
inactive: COLO 205 > 100 µM | EKVX > 100 µM | HOP-92 > 100 µM | HT-29 > 100 µM | K562 > 100 µM | MDA-MB-435 > 100 µM | MDA-N > 100 µM | Malme-3M > 100 µM | NCI-H23 > 100 µM | NCI-H460 > 100 µM | OVCAR-5 > 100 µM | OVCAR-8 > 100 µM | RPMI-8226 > 100 µM | SK-MEL-2 > 100 µM | SNB-19 > 100 µM | TK-10 > 100 µM | U-251 > 100 µM

COc1ccc(C2Oc3ccc(Cl)cc3C=C2[N+](=O)[O-])cc1 (stereo unspecified)
inactive: COLO 205 > 100 µM | EKVX > 100 µM | HT-29 > 100 µM | K562 > 100 µM | MDA-MB-435 > 100 µM | MDA-N > 100 µM | Malme-3M > 100 µM | NCI-H23 > 100 µM | NCI-H460 > 100 µM | OVCAR-5 > 100 µM | OVCAR-8 > 100 µM | RPMI-8226 > 100 µM | SK-MEL-28 > 100 µM | SNB-19 > 100 µM | TK-10 > 100 µM | U-251 > 100 µM

C[C@]12CCC3=NCCN3C1=CC[C@@H]1[C@@H]2CC[C@@]2(C)[C@H]1CC[C@]2(C)O
inactive: COLO 205 25.8 µM | EKVX 96.4 µM | HOP-92 37.2 µM | HT-29 16.1 µM | K562 34.7 µM | MDA-MB-435 84.9 µM | MDA-N 61.9 µM | Malme-3M 24.5 µM | NCI-H23 59.6 µM | NCI-H460 38.3 µM | OVCAR-5 > 100 µM | OVCAR-8 45.9 µM | RPMI-8226 15 µM | SK-MEL-28 28.8 µM | SK-MEL-2 50 µM | SNB-19 > 100 µM | SW-620 85.1 µM | TK-10 41.1 µM | U-251 87.3 µM

Cc1cc2nc3c(C#N)c4c(c(-c5ccc(Cl)cc5)n3c2cc1C)CCC4
inactive: COLO 205 19.8 µM | EKVX 24.2 µM | HOP-92 20.3 µM | HT-29 21.3 µM | K562 23.1 µM | MDA-MB-435 22.5 µM | MDA-N 28.8 µM | Malme-3M 23.3 µM | NCI-H23 19.1 µM | NCI-H460 43.2 µM | RPMI-8226 26.5 µM | SK-MEL-28 23.7 µM | SK-MEL-2 19 µM | SNB-19 20.8 µM | SW-620 30.4 µM | TK-10 22.1 µM | U-251 28.8 µM

CC(=O)C(C)(C)CCC(C)(C)C(C)=O
inactive: COLO 205 > 100 µM | EKVX > 100 µM | HCC 2998 > 100 µM | HT-29 > 100 µM | K562 > 100 µM | MDA-N > 100 µM | Malme-3M > 100 µM | NCI-H23 > 100 µM | NCI-H460 > 100 µM | OVCAR-5 > 100 µM | OVCAR-8 > 100 µM | SK-MEL-28 > 100 µM | SK-MEL-2 > 100 µM | SNB-19 > 100 µM | SW-620 > 100 µM | TK-10 > 100 µM | U-251 > 100 µM

CCCC(CCC(N)=O)(CCC(N)=O)[N+](=O)[O-]
inactive: COLO 205 > 100 µM | EKVX > 100 µM | HOP-92 > 100 µM | HT-29 > 100 µM | K562 > 100 µM | MDA-MB-435 > 100 µM | MDA-N > 100 µM | Malme-3M > 100 µM | NCI-H23 > 100 µM | NCI-H460 > 100 µM | OVCAR-5 > 100 µM | OVCAR-8 > 100 µM | RPMI-8226 > 100 µM | SK-MEL-2 > 100 µM | SNB-19 > 100 µM | SW-620 > 100 µM | TK-10 > 100 µM | U-251 > 100 µM

Cc1ncc(C/N=C/c2ccc(Cl)cc2)c(N)n1
inactive: COLO 205 > 100 µM | EKVX > 100 µM | HOP-92 > 100 µM | HT-29 > 100 µM | K562 > 100 µM | MDA-MB-435 > 100 µM | MDA-N > 100 µM | Malme-3M > 100 µM | NCI-H23 > 100 µM | NCI-H460 > 100 µM | OVCAR-5 > 100 µM | OVCAR-8 > 100 µM | RPMI-8226 > 100 µM | SK-MEL-28 > 100 µM | SK-MEL-2 > 100 µM | SNB-19 > 100 µM | SW-620 > 100 µM | TK-10 > 100 µM | U-251 > 100 µM

O=[N+]([O-])c1ccc(C(Nc2ccccc2)P(c2ccccc2)c2ccccc2)cc1 (stereo unspecified)
inactive: COLO 205 > 100 µM | EKVX > 100 µM | HOP-92 > 100 µM | HT-29 > 100 µM | K562 22.5 µM | MDA-MB-435 > 100 µM | MDA-N > 100 µM | Malme-3M > 100 µM | NCI-H23 > 100 µM | NCI-H460 > 100 µM | OVCAR-5 > 100 µM | OVCAR-8 > 100 µM | SK-MEL-28 > 100 µM | SK-MEL-2 > 100 µM | SNB-19 > 100 µM | SW-620 > 100 µM | TK-10 > 100 µM | U-251 > 100 µM
